Among the test systems are Candida albicans MDM8; Escherichia coli SBS 363; Micrococcus luteus A270; Escherichia coli AB94012.
Assay in all cases: ≥ marks a high value that may be exact or a test limit, other limits are often not marked, values filed in µg/mL are converted to µM
Assay [1] deals with Staphylococcus aureus USA 300 LAC.
The test system of assay [2] is Klebsiella pneumoniae ATCC 13883.
The subject of assay [3] is Escherichia coli ATCC 25922.
The test system of assay [4] is Enterococcus faecalis NCTC 12697.
In assay [5] the test system is Candida albicans NCTC 1467.
Assay [6] concerns Pseudomonas aeruginosa ATCC 27853.
Assay [7] deals with Staphylococcus aureus NCTC 12493.
Assay [8] has as its system Staphylococcus aureus NCTC 10788.
For assay [9], the system named is Klebsiella pneumoniae ATCC 43816.
For assay [10], the system named is Escherichia coli NCTC 10418.
Assay [11] concerns Staphylococcus aureus SH1000.
Assay [12] deals with Staphylococcus epidermidis ATCC 12228.
Assay [13] deals with Staphylococcus aureus ATCC 29213.
Assay [14] concerns Candida tropicalis IOC 4560.
Assay [15] has as its system Bacillus megaterium ATCC 10778.
For assay [16], the system named is Enterobacter cloacae beta-12.
The test system of assay [17] is Serratia marcescens ATCC 4112.
Assay [18] deals with Pseudomonas aeruginosa ATCC 9027.
The test system of assay [19] is Staphylococcus aureus AB6538.
The subject of assay [20] is Staphylococcus aureus AB94004.
Assay [21] concerns Staphylococcus aureus NRS 1.
Assay [22] relates to Staphylococcus aureus NRS 17.
For assay [23], the system named is Klebsiella pneumoniae ATCC BAA-2146.
Assay [24] concerns Staphylococcus aureus VRSA10.
The subject of assay [25] is Staphylococcus aureus VRSA1.
The subject of assay [26] is Streptococcus pneumoniae ATCC 700677.
Assay [27] relates to Acinetobacter baumannii ATCC 19606.
Assay [28] has as its system Staphylococcus aureus ATCC 43300.
Assay [29] has as its system Pseudomonas aeruginosa FADDI-PA070.
The subject of assay [30] is Klebsiella pneumoniae ATCC 700603.

Values after ≈ are worked out from the molar mass of the structure shown. Bounds are passed on as bounds.

As to `CC[C@H](C)[C@H](NC(=O)[C@H](CCCCN)NC(=O)[C@H](CCCN=C(N)N)NC(=O)[C@H](CC(C)C)NC(=O)[C@H](Cc1c[nH]c2ccccc12)NC(=O)[C@H](Cc1c[nH]c2ccccc12)NC(=O)[C@@H](N)Cc1c[nH]c2ccccc12)C(=O)N[C@@H](Cc1c[nH]c2ccccc12)C(N)=O` [WWWLRKIW], the MIC in assay [1] turned out to be 3.1 µM (≈ 3.94 µg/mL); in [2], 12.5 µM (≈ 15.9 µg/mL); in assay [3] it was 8.8 µM (≈ 11.2 µg/mL).
In the case of `CSCC[C@H](NC(=O)[C@H](CCC(=O)O)NC(=O)[C@H](CCCCN)NC(=O)[C@H](CC(C)C)NC(=O)[C@H](CCCCN)NC(=O)CNC(=O)[C@H](Cc1c[nH]c2ccccc12)NC(=O)[C@H](CC(C)C)NC(=O)[C@@H](N)CO)C(=O)N[C@@H](CC(C)C)C(=O)N[C@@H](C)C(=O)N[C@@H](CCCCN)C(=O)N[C@@H](C)C(=O)NCC(=O)N[C@@H](CCCCN)C(=O)N[C@@H](C)C(=O)N[C@H](C(=O)N[C@@H](C)C(=O)N[C@@H](CC(N)=O)C(=O)N[C@@H](C)C(=O)N[C@H](C(=O)N[C@@H](CC(N)=O)C(=O)NCC(=O)N[C@@H](CC(C)C)C(=O)N[C@@H](C)C(=O)N[C@@H](CC(N)=O)C(=O)N[C@@H](CCC(N)=O)C(N)=O)C(C)C)C(C)C` [SLWGKLKEMLAKAGKAVANAVNGLANQ], the MIC in assay [4] was 8 µM (≈ 22.3 µg/mL); in [5] it was 16 µM (≈ 44.5 µg/mL); in assay [6], 32 µM (≈ 89 µg/mL); in assay [7], 8 µM (≈ 22.3 µg/mL); in assay [8], 8 µM (≈ 22.3 µg/mL); in assay [9], 8 µM (≈ 22.3 µg/mL). The minimal inhibitory concentration (MIC) in [10] came out at 8 µM (≈ 22.3 µg/mL).
In the case of `CC(C)C[C@H](NC(=O)[C@H](CC(C)C)NC(=O)[C@H](CCCCN)NC(=O)[C@H](CC(C)C)NC(=O)[C@H](CC(C)C)NC(=O)[C@H](CCCCN)NC(=O)[C@H](CCCCN)NC(=O)[C@H](CC(C)C)NC(=O)[C@H](CC(C)C)NC(=O)[C@H](CCCCN)NC(=O)[C@H](CC(C)C)NC(=O)[C@H](CC(C)C)NC(=O)[C@@H](N)CCCCN)C(=O)NCC(N)=O` [KLLKLLKKLLKLLG], the MIC in [11] is no less than 100 µM.
`CC(C)C[C@H](NC(=O)[C@H](C)NC(=O)CNC(=O)[C@H](CC(C)C)NC(=O)[C@@H](N)Cc1ccccc1)C(=O)N[C@@H](Cc1c[nH]c2ccccc12)C(=O)N[C@@H](CC(N)=O)C(=O)N[C@H](C(=O)N[C@@H](CCCCN)C(=O)N[C@@H](CCCCN)C(=O)N[C@@H](CO)C(=O)N[C@H](C(=O)N[C@@H](Cc1ccccc1)C(N)=O)C(C)C)C(C)C` [FLGALWNVKKSVF]: the MIC against Candida albicans MDM8 is no less than 50 µM; in [12] it was greater than 50 µM; in the assay with Escherichia coli SBS 363, no less than 50 µM; in [13], greater than 50 µM; in assay [14] it was no less than 50 µM; in assay [15] it was no less than 50 µM. Moreover, the MIC (in assay [16]; in assay [17]; against Micrococcus luteus A270) was no less than 50 µM in each case.
As to `CC[C@H](C)[C@H](NC(=O)[C@H](CO)NC(=O)[C@@H]1CCCN1C(=O)[C@H](CC(C)C)NC(=O)[C@@H](NC(=O)[C@H](CO)NC(=O)CNC(=O)[C@H](CC(C)C)NC(=O)[C@@H](NC(=O)[C@H](CO)NC(=O)CNC(=O)[C@H](CC(C)C)NC(=O)[C@H](CC(C)C)NC(=O)CNC(=O)[C@H](CC(C)C)NC(=O)[C@@H](N)Cc1ccccc1)C(C)C)C(C)C)C(=O)N[C@@H](Cc1ccccc1)C(=O)N[C@@H](CCCCN)C(N)=O` [FLGLLGSVLGSVLPSIFK], the MIC is greater than 54.1 µM in assay [18]; 6.77 µM (≈ 12.5 µg/mL) in assay [19]; greater than 54.1 µM in [6]; greater than 54.1 µM in assay [3]; no less than 54.1 µM in the assay with Escherichia coli AB94012; 6.77 µM (≈ 12.5 µg/mL) in assay [20].
Consider `CC[C@H](C)[C@H](NC(=O)[C@@H](N)CC(C)C)C(=O)NCC(=O)N[C@@H](CC(C)C)C(=O)N[C@H](C(=O)N[C@@H](CO)C(=O)N[C@@H](CCCCN)C(=O)NCC(=O)N[C@H](C(=O)N[C@H]1CSSC[C@@H](C(=O)N[C@@H](CCCCN)C(=O)N[C@@H](CCCCN)C(=O)N[C@H](C(=O)N[C@@H](CC(C)C)C(=O)N[C@@H](CCCCN)C(=O)N[C@@H](CCC(N)=O)C(N)=O)C(C)C)NC(=O)[C@H](C(C)C)NC(=O)[C@H]([C@@H](C)O)NC(=O)[C@H](CCCCN)NC(=O)[C@H](C(C)C)NC(=O)[C@H](CC(C)C)NC(=O)[C@H](C(C)C)NC1=O)[C@@H](C)O)C(C)C` [LIGLVSKGTCVLVKTVCKKVLKQ], for which the minimum inhibitory concentration (MIC) is 9.6 µM (≈ 23.6 µg/mL) in [21]; 9.6 µM (≈ 23.6 µg/mL) in assay [22]; 9.6 µM (≈ 23.6 µg/mL) in assay [23]; 9.6 µM (≈ 23.6 µg/mL) in [24]; greater than 9.6 µM in [6]; 9.6 µM (≈ 23.6 µg/mL) in assay [25]. Besides, the MIC in [26] was 9.6 µM (≈ 23.6 µg/mL); in assay [27], greater than 9.6 µM; in assay [3], greater than 9.6 µM; in [28], greater than 9.6 µM; in assay [29] it was 9.6 µM (≈ 23.6 µg/mL); in assay [30], greater than 9.6 µM.

In general, MIC refers to the least concentration at which growth counts as inhibited.

Values taken from DBAASP.
